Measurements taken from ChEMBL document CHEMBL1201862, “PubChem BioAssay data set” (2004).
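All cell lines were grown in 96-well plates and treated with compound for 48 hours. The concentration for 50% growth inhibition is given as GI50.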 Activity calls are given as the source filed them. No stated cut-off is given here; in the data, active = GI50 up to about 1.1 µM and inactive = higher.

Tests used:
Assay in all cases: inhibition of tumour cell growth, NCI panel, 48 h
Hs-578T = test system: Hs-578T
HL-60 = test system: HL-60
NCI-H522 = test system: NCI-H522
SK-MEL-2 = test system: SK-MEL-2
COLO 205 = test system: COLO 205
SW-620 = test system: SW-620
CCRF-CEM = test system: CCRF-CEM
HT-29 = test system: HT-29
SF-268 = test system: SF-268
HCT-116 = test system: HCT-116
MDA-N = test system: MDA-N
ACHN = test system: ACHN
RXF 393 = test system: RXF 393
Malme-3M = test system: Malme-3M
LOX IMVI = test system: LOX IMVI
IGROV-1 = test system: IGROV-1
U-251 = test system: U-251
SK-MEL-5 = test system: SK-MEL-5
SK-MEL-28 = test system: SK-MEL-28
SR = test system: SR

Measured: GI50

COc1ccc(Cc2ccc3nc(O)cc(C)c3c2)cc1S(=O)(=O)O
inactive: Hs-578T > 100 µM | HL-60 > 100 µM | NCI-H522 > 100 µM | SK-MEL-2 > 100 µM | COLO 205 > 100 µM | SW-620 > 100 µM | CCRF-CEM > 100 µM | HT-29 > 100 µM | SF-268 > 100 µM | HCT-116 > 100 µM | MDA-N > 100 µM | ACHN > 100 µM | RXF 393 > 100 µM | Malme-3M > 100 µM | LOX IMVI > 100 µM | IGROV-1 > 100 µM | U-251 > 100 µM | SK-MEL-5 > 100 µM | SK-MEL-28 > 100 µM | SR > 100 µM

COc1cc(Nc2nc3c(N)cc(C(F)(F)F)cc3nc2-c2ccccc2)cc(OC)c1OC
inactive: Hs-578T 22.3 µM | HL-60 > 100 µM | NCI-H522 28.4 µM | SK-MEL-2 51.4 µM | COLO 205 99.3 µM | SW-620 > 90.4 µM | CCRF-CEM > 100 µM | HT-29 > 92.5 µM | SF-268 33.4 µM | HCT-116 > 74.3 µM | MDA-N > 80.7 µM | ACHN 42.9 µM | RXF 393 1.98 µM | Malme-3M 41.1 µM | LOX IMVI 72.1 µM | IGROV-1 55.3 µM | U-251 26.1 µM | SK-MEL-5 19.1 µM | SK-MEL-28 57 µM | SR > 87.5 µM
